The values that follow are results of earlier work, collected in patent US9970152B2, “Method for functionalizing a solid material surface with self assembling or self aggregating cyclodextrins and products thereof” (Aalborg Universitet, priority 2010, dated 2018).

The conditions of the data set: in water.

Regarding `OC[C@H]1O[C@@H]2O[C@H]3[C@H](O)[C@@H](O)[C@@H](O[C@H]4[C@H](O)[C@@H](O)[C@@H](O[C@H]5[C@H](O)[C@@H](O)[C@@H](O[C@H]6[C@H](O)[C@@H](O)[C@@H](O[C@H]7[C@H](O)[C@@H](O)[C@@H](O[C@H]1[C@H](O)[C@H]2O)O[C@@H]7CO)O[C@@H]6CO)O[C@@H]5CO)O[C@@H]4CO)O[C@@H]3CO` [α CD], the Solubility is listed as 129.5 g/kg H2O.
